Experiments:
[1] = target: S. aureus ATCC 29213 FabI (Staphylococcus aureus (strain MRSA252), UniProt Q6GI75); test: Staphylococcus aureus FabI enzyme inhibition assay; format: biochemical; conditions: 30 minutes at room temperature, pH 6.5
Description: D.1 FabI Enzyme Inhibition: Staphylococcus aureus FabI Enzyme Inhibition Assay
FabI enzyme inhibition assays were carried out in half-area, 384-well microtitre plates. Compounds were evaluated in 40-μl assay mixtures containing 100 mM NaADA, pH 6.5 (ADA=N-[2-acetamido]-2iminodiacetic acid), 250 μM crotonoyl-CoA, 625 μM NADH and 50 μg/ml S. aureus ATCC 29213 FabI Inhibitors were typically varied over the range of 50 to 0.39 μM. The reaction mixtures were incubated for 30 minutes at room temperature and the reaction was stopped by adding 200 mM Tris buffer (pH 9.0) to create a pH-shift. The consumption of NADH was monitored by measuring the change in absorbance at […]. By comparing sample readings to those of negative (absence of compound) and positive (absence of enzyme) controls, the percent inhibition of enzymatic activity of the compounds was determined A best-fit curve is fitted by a minimum of squares method. From this an IC50-value (expressed in μg/ml), resulting in 50% inhibition of enzymatic activity, was obtained.

[2] = system: Staphylococcus aureus ATCC 29213; test: Antibacterial susceptibility testing, IC90 determination (STA 361.159); format: cell-based; conditions: STA ATCC 29213; 90% inhibitory concentration for bacterial growth
Description: D.2 In Vitro Method for Testing Compounds for Antibacterial Activity Against Various Bacterial Strains Preparation of Bacterial Suspensions for Susceptibility Testing
(§1) The following bacteria were used: Staphylococcus aureus ATCC 29213, methicillin-resistant Staphylococcus aureus (MRSA) ATCC 700788 and Escherichia coli ATCC 35218. The bacteria used in this study were grown overnight in flasks containing 100 ml Mueller-Hinton broth (Difco cat. nr. 0757-17) in sterile de-ionized water, with shaking, at 37° C. Stocks were store at −70° C. until use.
(§2) Bacteria were incubated on a tryptic soy agar plate containing 5% sheep blood (Becton Dickinson cat. nr. 254053) for 18-24 hours at 35° C. in aerobic conditions (first passage). For the second passage, fresh Mueller-Hinton broth is inoculated with 5-10 colonies and grown overnight at 35° C. until turbidity (reaching log-phase) in aerobic conditions is reached. The bacterial suspension is then adjusted to 0.5 McFarland density and further diluted 1:100 in Mueller Hinton broth medium. This is used as inoculum.
Antibacterial Susceptibility Testing: IC90 Determination
(§3) MIC assays were performed by the broth microdilution method in a 96-well format (flat-bottom microtitre plates) with a final volume of 0.1 ml Mueller Hinton broth containing two-fold serial dilutions of compounds and inoculated with 5×10^5 CFU/ml of bacteria (standard inoculum size according to CLSI guidelines). Inhibitors are typically varied over the range of 63 to 0.49 μM. The final DMSO concentration in the assay was 1.25% (maximum tolerable DMSO concentration=6%). In the assays where the effect of human serum on the activity of the compounds against S. aureus was tested, human serum was added at a final concentration of 10%. The plates were incubated at 35° C. for 16-20 hours. At the end of incubation the bacterial growth was quantified fluorometrically. For this, resazurin was added to all wells and the plates were re-incubated. The incubation time is dependent on the type of bacteria. A change in color from blue to pink indicated the growth of bacteria. The fluorescence was read in computer-controlled fluorometer (Fluoroskan Ascent FL, Labsystems) at an excitation wavelength 540 nm and an emission wavelength of 590 nm. The % growth inhibition achieved by the compounds was calculated according to standard methods. The IC90 (expressed in μg/ml) was defined as the 90% inhibitory concentration for bacterial growth. A panel of reference compounds were simultaneously tested for QC approval.

Human HelaM cells = test: Cytotoxicity MTT assay (TOX HELAM 222.125); format: cell-based; conditions: 72 hours
Description: Cytotoxicity of the compounds was evaluated using the MTT assay. Human HelaM cells grown in 96-well plates were exposed to serial dilutions of the tested compounds (final volume of 0.2 ml) and incubated for 72 hours at 37° C. and 5% CO2 Inhibitors are typically varied over the range of 25 to 0.8 μM. The final DMSO concentration in the assay is 0.5%. MTT (3-(4,5-Dimethylthiazol-2-yl)-2,5-diphenyltetrazolium bromide, a tetrazole) was added and reduced to purple formazan only in living cells. Solubilization of the formazan crystals was achieved by adding 100 μl 2-propanol. Cell viability was determined by measuring the absorbance of the reduced formazan, giving a purple color, at 540 nm and 690 nm. The absorbance measured at 690 nm was automatically subtracted from the absorbance at 540 nm, to eliminate the effects of non-specific absorption. The percent cytotoxicity achieved by the compounds was calculated according to standard methods. Cytotoxicity is reported as CC50, the concentration that causes a 50% reduction in cell viability.
The results are depicted in the table D2 below (TOX HELAM).

S. aureus = test: Antibacterial susceptibility testing, IC90 with 10% human serum (STA + 10% HS 361.169); format: cell-based, Staphylococcus aureus; conditions: S. aureus with 10% human serum
Description: as §1, §2, §3
The results are depicted in the table D2 below (STA+10% HS).

Row | Structure (SMILES) | FabI IC50 [1] [µg/mL] | STA (361.159) IC90 [2] [µg/mL] | TOX HELAM (222.125) CC50 (Human HelaM cells) [µg/mL] | STA + 10% HS (361.169) IC90 (S. aureus) [µg/mL]
1 | O=C1CCc2cc(/C=C/C(=O)N3CCCC(Oc4ccccc4)C3)cnc2N1 (stereo not shown) [compound 1] | 3.52 |  |  | 
2 | COc1ccccc1C1=CCN(C(=O)/C=C/c2cnc3c(c2)CCC(=O)N3)CC1 [compound 2] | 0.32 | 1.97 | >9.783 | 2.99
3 | O=C1CCc2cc(/C=C/C(=O)N3CCc4ccccc4C3)cnc2N1 [compound 3] | 0.48 | 8.67 | >8.374 | 10.79
4 | O=C1CCc2cc(/C=C/C(=O)N3CCC(c4ccccc4)CC3)cnc2N1 [compound 4] | 0.29 | 4.99 | >9.079 | 4.60
5 | O=C1CCc2cc(/C=C/C(=O)N3CCC(c4cccc(O)c4)CC3)cnc2N1 [compound 5] | 0.35 | 10.52 | >9.481 | 11.14
6 | O=C1CCc2cc(/C=C/C(=O)N3CCC(C(=O)c4ccccc4)CC3)cnc2N1 [compound 6] | 1.74 |  |  | 
7 | O=C1CCc2cc(/C=C/C(=O)N3CC=C(c4ccccc4)CC3)cnc2N1 [compound 7] | 0.41 | 2.07 | >9.028 | 2.54
8 | O=C1CCc2cc(/C=C/C(=O)N3CC=C(c4ccc5c(c4)OCO5)CC3)cnc2N1 [compound 8] | 0.53 |  |  | 
9 | O=C1CCc2cc(/C=C/C(=O)N3CC=C(c4ccco4)CC3)cnc2N1 [compound 9] | 0.34 | 2.91 | >8.776 | 2.65
10 | O=C1CCc2cc(/C=C/C(=O)N3CC=C(c4ccoc4)CC3)cnc2N1 [compound 10] | 0.48 | 10.43 | >8.776 | 20.34
11 | O=C1CCc2cc(/C=C/C(=O)N3CCC(O)(c4ccc(Cl)cc4)CC3)cnc2N1 [compound 11] | 0.80 |  |  | 
12 | O=C1CCc2cc(/C=C/C(=O)N3CCC(Cc4ccccc4)CC3)cnc2N1 [compound 12] | 0.31 | 1.19 | >9.431 | 2.09
13 | COc1ccccc1C1CCN(C(=O)/C=C/c2cnc3c(c2)CCC(=O)N3)CC1 [compound 13] | 0.53 |  |  | 
14 | COc1ccccc1CC1=CCN(C(=O)/C=C/c2cnc3c(c2)CCC(=O)N3)CC1 [compound 14] | 1.06 | 6.93 | >10.1352 | 13.06
15 | O=C1CCc2cc(/C=C/C(=O)N3CC=CCC3)cnc2N1 [compound 15] | 3.57 |  |  | 
16 | O=C1CCc2cc(/C=C/C(=O)N3CC=C(c4ccccc4Cl)CC3)cnc2N1 [compound 16] | 0.58 | 3.31 | 8.04 | 8.52
17 | O=C1CCc2cc(/C=C/C(=O)N3CC=C(c4cc5ccccc5o4)CC3)cnc2N1 [compound 17] | 1.91 |  |  | 
18 | O=C1CCc2cc(/C=C/C(=O)N3CC=C(c4cccnc4)CC3)cnc2N1 [compound 18] | 0.67 |  |  | 
19 | O=C1CCc2cc(/C=C/C(=O)N3CC=C(c4cccc(C(F)(F)F)c4)CC3)cnc2N1 [compound 19] | 1.12 |  |  | 
